Consider 1 substance from patent US5561042A, “Diamine platinum naphthalimide complexes as antitumor agents” (Cancer Therapy and Research Center, priority 1995, dated 1996).

Assay [1] deals with MCF-7 Human Breast Carcinoma cell line. Description: In vitro growth inhibition (MTT), MCF-7 breast carcinoma. Particulars: 6 days. It counts as cell-based. An excerpt: (§1) P388 murine leukemic cell line was obtained from the DCT Tumor Repository (National Cancer Institute, Frederick Cancer Research and Development, Frederick Md. 21702). HT29 Human Colon Carcinoma cell line was obtained from the American Type Culture Collection (12301 Parklawn Drive, Rockville, Md. 20852). B16 Melanoma cell line was obtained from DuPont Merck Pharmaceutical Company (Glenolden, Pa. 19036). MCF-7 Human Breast Carcinoma cell line was a gift from Dr. K. Osborne (Department of Medicine, The University of Texas Health Science Center at San Antonio, San Antonio, Tex. 78284). All cell lines were incubated at 37° C. in a humidified atmosphere of 5% CO2 -95% air. Murine B16 melanoma cell line was grown in RPMI 1640 medium supplemented with 10% heat-inactivated fetal bovine serum, 2 mM L-glutamine, 50 units/ml penicillin, 50 μg/ml streptomycin, 25 μg/ml gentamycin, 0.75% sodium bicarbonate, 10 mM HEPES buffer (pH 7.4), and 0.06 mg/ml AntiPPLO. Murine P388 leukemic and the human HT-29 colon adenocarcinoma cell lines were maintained in RPMI 1640 medium supplemented with 10% heat-inactivated fetal bovine serum. MCF-7M human breast adenocarcinoma was maintained in IMEM medium supplemented with 5% non heat-inactivated fetal bovine serum and 1 nM insulin.
(§2) Exponentially growing cells (1-2×10^3 cells, unless specified otherwise) in 0.1 ml medium were seeded on day 0 in a 96-well microtiter plate. On day 1, 0.1 ml aliquots of medium containing graded concentrations of test compounds were added in duplicate to the cell plates. After incubation at 37° C. in a humidified incubator for 3 days (P388, B16) or 6 days (HT-29, MCF-7M), the plates were centrifuged briefly and 100 μl of the growth medium was removed. Cell cultures were incubated with 50 μl of 3-(4,5-dimethylthiazol-2-yl)-2,5-diphenyl-tetrazolium bromide [MTT, 1 mg/ml in Dulbecco's phosphate buffered saline (PBS)] for 4 hr at 37° C. The resulting purple formazan precipitate was solubilized with 200 μl of 0.04N HCl in isopropyl alcohol. Absorbance was monitored in a BioRad Model 3550 Microplate Reader at a test wavelength of 570 nm and a reference wavelength of 630 nm. The absorbance was transferred to a PC 486 computer. The IC50 values were determined by a computer program (EZ-ED50) that fit all of the data to the following four-parameterlogistic equation:
(§3) Y=((Am -Ao)/(1+(X/IC50)^n))+Ao
(§4) where Am is the absorbance of control cells, Ao is the absorbance of cells in the presence of highest agent concentration, Y is the observed absorbance, X is the agent concentration, IC50 is the concentration of agent that inhibits the cell growth by 50% of control cells (based on the absorbance) and n is the slope of the curve.

A further assay addresses Lambda DNA. Description: Ethidium bromide displacement, lambda DNA. It counts as binding. To be noted: 1 μM DNA, 1.26 μM ethidium bromide, pH 7.0, read-out: FI50, Lambda DNA. As to the method: (§5) A 10× Binding solution was prepared by combining 0.93 ml of an aqueous NaCl solution (5M), 2.0 ml of an aqueous Tris HCl (500 mM) solution, 0.1 ml of an EDTA solution (500 mM) and 46.97 ml of water. The resultant solution was 93 mM in NaCl, 20 mM in Tris HCl, and 1 mM in EDTA. Stock DNA solution were prepared as follows: Poly (dG·dC)-(dG·dC) (ε254=8.4/mM; 27-7910-02), poly(dA·dT)-(dA·dT) (ε262=6.6/mM; 27-7870-02), and lambda DNA (ε260-7.0/mM; 27-4111-01) were purchased from Pharmacia. Solutions were prepared by resuspending either poly (dG·dC)-(dG·dC) or poly(dA·dT)-(dA·dT)in 1 ml of 10× DNA Binding Solution. Lambda DNA is already in solution as purchased.
(§6) Poly (dG·dC)-(dG·dC), poly(dA·dt)-(dA·dt) and lambda DNA concentrations were determined as follows: 980 μl of 10× DNA Binding Solution was pipetted into a 1 ml cuvette. A blank was run on the UV spectrophotometer. 20 μl of the DNA stock of unknown concentration was then added into the cuvette. The sample was then scanned between 210 nm to 500 nm and the absorbance recorded at 254 nm for poly(dG·dC)-(dG·dC), at 262 nm for poly(dA·dT)-(dA·dT) and at 260 nm for lambda DNA. The solution was transferred to a clean tube. This procedure was followed for three different solutions with the absorbance taken as the average of the three. The concentration of poly(dG·dC)-(dG·dC) stock was calculated to be A254 /8.4×1000 (in μM). The concentration of poly(dA·dT)-(dA·dT) stock was calculated to be A262 /6.6×1000 (in μM). The concentration of lambda DNA stock was calculated to be A260 /7.0×1000 (in μM).
(§7) The binding of the bis-naphthalimides to DNA and to synthetic polynucleotide duplexes was determined by an ethidium bromide displacement assay that measures the reduction of fluorescence when ethidium bromide is displaced from DNA (Baguley, 1981). The fluorescence intensity of a 3 ml solution containing 9.3 mM NaCl, 2 mM Tris-HCl (pH 7.0), 100 μM EDTA, 1 μM DNA (in nucleotides) and 1.26 μM ethidium bromide in a quartz cuvette was measured at the excitation (546 nm) and emission (600 nm) wavelengths on a Shimadzu RF5000U spectrofluorometer. Graded concentrations of agent were then added and the fluorescence intensity was measured. The concentration of compound required to reduce the fluorescence intensity by 50% of that of control (FI50) was determined. Therefore, the lower the FI50 the stronger the binding affinity a particular compound has for DNA.
(§8) The ability of bis-naphthalimides of the present invention and the known anti-cancer agents compound 22 and DMP840, (R,R)-2,2'[1,2-ethanediylbis[imino(1-methyl-2,1-ethanediyl)]]-bis[5-nitro- 1H benz[de]isoquinoline-1,3-(2H)dione]dimethanesulfonate, to bind to DNA and to synthetic oligonucleotide duplexes was measured using an ethidium bromide displacement assay. Ethidium bromide, a known DNA intercalator, has no fluorescence in the absence of DNA; however, fluorescence intensity increases when ethidium bromide binds to DNA. The ethidium bromide displacement assay measures the decrease in fluorescence intensity caused by DNA-bound ethidium bromide with DNA interacting agents.

Assay [2] has as its target poly (dA.dT) - poly (dA.dT). The assay is described as follows: Ethidium bromide displacement, poly(dA.dT)-poly(dA.dT). It counts as binding. To be noted: 1 μM DNA, 1.26 μM ethidium bromide, pH 7.0, read-out: FI50, poly (dA.dT) - poly (dA.dT). How it is done:
as §5, §6, §7, §8

For assay [3], the system named is Murine B16 melanoma cell line. Description: In vitro growth inhibition (MTT), B16 melanoma. The format is cell-based. To be noted: MTT, 3 days.
Text: as §1, §2, §3, §4

Assay [4] deals with poly (dG.dC) - poly (dG.dC). The assay is described as follows: Ethidium bromide displacement, poly(dG.dC)-poly(dG.dC). The format is binding. How it is done:
as §5, §6, §7, §8

“8-(3'-nitro-1',8'-naphthalimide)-3,6-diazaoctylamine dichloroplatinum(II) [Compound 21]”: the IC50 was determined as 66 nM in assay [1]; 235 nM at Lambda DNA; 173 nM in assay [2]; 385 nM in assay [3]; 239 nM in assay [4] (ethidium bromide displacement, 1 μM DNA, 1.26 μM ethidium bromide, pH 7.0, read-out: FI50, poly (dG.dC) - poly (dG.dC)). The “Ratio (AT/GC)” value in assay [4] (FI50 poly(dA.dT)-poly(dA.dT) / FI50 poly(dG.dC)-poly(dG.dC)) is recorded as 0.72.
